Bounds are passed on as bounds.

This assay addresses Wild type FGFR2 (Homo sapiens (Human), UniProt P21802). Nature of the assay: FGFR2 kinase assay (fluorescence-based microfluidic mobility shift assay). Format: biochemical. The conditions noted are these: wild type FGFR2 0.06 nM, 100 μM ATP, 80 minutes at room temperature; class symbols.

Wild type FGFR2, sequence (P21802 22-821): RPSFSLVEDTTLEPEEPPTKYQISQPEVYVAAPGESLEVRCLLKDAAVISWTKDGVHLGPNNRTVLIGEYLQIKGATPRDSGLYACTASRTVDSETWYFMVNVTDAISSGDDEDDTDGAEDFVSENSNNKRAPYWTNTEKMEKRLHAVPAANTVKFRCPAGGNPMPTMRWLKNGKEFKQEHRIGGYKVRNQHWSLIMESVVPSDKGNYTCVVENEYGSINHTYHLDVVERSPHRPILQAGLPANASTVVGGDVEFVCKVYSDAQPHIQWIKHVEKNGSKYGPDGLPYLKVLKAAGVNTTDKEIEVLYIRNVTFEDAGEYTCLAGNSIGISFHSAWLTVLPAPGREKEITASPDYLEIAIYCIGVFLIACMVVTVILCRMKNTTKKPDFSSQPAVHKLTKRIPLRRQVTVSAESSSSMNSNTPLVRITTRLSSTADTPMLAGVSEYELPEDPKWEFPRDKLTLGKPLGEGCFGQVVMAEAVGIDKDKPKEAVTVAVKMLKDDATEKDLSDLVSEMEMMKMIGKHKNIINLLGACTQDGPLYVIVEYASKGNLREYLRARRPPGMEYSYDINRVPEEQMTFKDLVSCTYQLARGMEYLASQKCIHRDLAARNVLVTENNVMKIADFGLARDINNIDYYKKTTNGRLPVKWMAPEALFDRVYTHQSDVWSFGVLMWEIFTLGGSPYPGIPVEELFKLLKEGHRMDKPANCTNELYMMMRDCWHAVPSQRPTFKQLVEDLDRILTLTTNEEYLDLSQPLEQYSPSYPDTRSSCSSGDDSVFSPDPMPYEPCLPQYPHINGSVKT

For orientation: IC50 means the point on the concentration scale where inhibition reaches its midpoint. Turning to `C=CC(=O)N1C[C@@H](n2nc(C#Cc3ccc4c(c3)nc(C3CC3)n4C)c(C(N)=O)c2NC)C[C@@H]1COC` [Example 43, 3-[2-(2-cyclopropyl-1-methyl-1,3-benzodiazol-5-yl)ethynyl]-1-[(3S,5R)-5-(methoxymethyl)-1-(prop-2-enoyl)pyrrolidin-3-yl]-5-(methylamino)pyrazole-4-carboxamide], the IC50 is at most 100 nM.

Regarding `C=CC(=O)N1C[C@@H](n2nc(C#Cc3cc4nc(C)n(C5CC5)c4cc3Cl)c(C(N)=O)c2NC)C[C@@H]1[C@H](C)O` [Example 221, 1-((3S,5R)-1-Acryloyl-5-((S)-1-hydroxyethyl)pyrrolidin-3-yl)-3-((6-chloro-1-cyclopropyl-2-methyl-1H-benzo[d]imidazol-5-yl)ethynyl)-5-(methylamino)-1H-pyrazole-4-carboxamide], the half-maximal inhibitory concentration (IC50) was at most 100 nM.

Turning to `C=CC(=O)N1C[C@@H](n2nc(C#Cc3ccc4c(nc(C)n4C)c3F)c(C(N)=O)c2NC)C[C@@H]1COC` [Example 20, 1-((3S,5R)-1-acryloyl-5-(pethoxymethyl)pyrrolidin-3-yl)-3-((4-fluoro-1,2-dimethyl-1H-benzo[d]imidazol-5-yl)ethynyl)-5-(methylamino)-1H-pyrazole-4-carboxamide], the concentration for half-maximal inhibition (IC50) is at most 100 nM.

With `C=CC(=O)N1C[C@@H](n2nc(C#Cc3ccn4c(C)cnc4c3)c(C(N)=O)c2NC)C[C@@H]1COC` [Example 75, 1-[(3S,5R)-5-(Methoxymethyl)-1-(prop-2-enoyl)pyrrolidin-3-yl]-5-(methylamino)-3-(2-[3-methylimidazo[1,2-a]pyridin-7-yl]ethynyl)pyrazole-4-carboxamide], the half-inhibitory concentration (IC50) is at most 100 nM.

Regarding `C=CC(=O)N1C[C@@H](n2nc(C#Cc3c(F)cc4c(nc(C5CC5)n4CC)c3F)c(C(N)=O)c2NC)C[C@@H]1COC` [Example 45, 3-[2-(2-cyclopropyl-1-ethyl-4,6-difluoro-1,3-benzodiazol-5-yl)ethynyl]-1-[(3S,5R)-5-(methoxymethyl)-1-(prop-2-enoyl)pyrrolidin-3-yl]-5-(methylamino) pyrazole-4-carboxamide], the IC50 was at most 100 nM.

Turning to `C=CC(=O)N1C[C@@H](n2nc(C#Cc3c(F)cc4[nH]c(C(F)(F)F)nc4c3F)c(C(N)=O)c2NC)C[C@@H]1COC` [Example 46], the 50% inhibitory concentration (IC50) is at most 100 nM.

As for `C=CC(=O)N1C[C@@H](n2nc(C#Cc3c(F)cc4c(ncn4C4CC4)c3F)c(C(N)=O)c2NC)C[C@@H]1CF` [Example 179, 1-((3S,5R)-1-Acryloyl-5-(fluoromethyl)pyrrolidin-3-yl)-3-((1-cyclopropyl-4,6-difluoro-1H-benzo[d]imidazol-5-yl)ethynyl)-5-(methylamino)-1H-pyrazole-4-carboxamide], the IC50 was at most 100 nM.

In the case of `C=CC(=O)N1C[C@@H](n2nc(C#Cc3cc4ncnn4cc3F)c(C(N)=O)c2NC)C[C@@H]1COC` [Example 130, 3-(2-[6-Fluoro-[1,2,4]triazolo[1,5-a]pyridin-7-yl]-ethynyl)-1-[(3S,5R)-5-(methoxymethyl)-1-(prop-2-enoyl)pyrrolidin-3-yl]-5-(methylamino)pyrazole-4-carboxamide], the half-maximal inhibitory concentration (IC50) is at most 100 nM.

Take `C=CC(=O)N1C[C@@H](n2nc(C#Cc3c(F)cc4c(ncn4C4CC4)c3F)c(C(N)=O)c2N)C[C@@H]1COC` [Example 189, 5-amino-3-[2-(1-cyclopropyl-4,6-difluoro-1,3-benzodiazol-5-yl)ethynyl]-1-[(3S,5R)-5-(methoxymethyl)-1-(prop-2-enoyl)pyrrolidin-3-yl]pyrazole-4-carboxamide]: the IC50 was at most 100 nM.

Turning to `C=CC(=O)N1C[C@@H](n2nc(C#Cc3cc4ncn(C5CC5)c4cc3F)c(C(N)=O)c2NC)C[C@H]1C` [Example 164, 1-((3S,5R)-1-Acryloyl-5-methylpyrrolidin-3-yl)-3-((1-cyclopropyl-6-fluoro-1H-benzo[d]imidazol-5-yl)ethynyl)-5-(methylamino)-1H-pyrazole-4-carboxamide], the IC50 was at most 100 nM.

On to `C=CC(=O)N1C[C@@H](n2nc(C#Cc3cc4c(cc3F)OCO4)c(C(N)=O)c2NC)C[C@@H]1COC` [Example 254, 3-[2-(6-Fluoro-2H-1,3-benzodioxol-5-yl)ethynyl]-1-[(3S,5R)-5-(methoxymethyl)-1-(prop-2-enoyl)pyrrolidin-3-yl]-5-(methylamino)pyrazole-4-carboxamide], for which the IC50 is at most 100 nM.

On to `CNc1c(C(N)=O)c(C#Cc2cc3nc(C)n(C4CC4)c3cc2F)nn1[C@H]1C[C@H](COC)N(C(=O)C#CC(C)(C)O)C1` [Example 227, 3-[2-(1-Cyclopropyl-6-fluoro-2-methyl-1,3-benzodiazol-5-yl)ethynyl]-1-[(3S,5R)-1-(4-hydroxy-4-methylpent-2-ynoyl)-5-(methoxymethyl)pyrrolidin-3-yl]-5 (methylamino)pyrazole-4-carboxamide], for which the 50% inhibitory concentration (IC50) was at most 100 nM.

As to `C=CC(=O)N1C[C@@H](n2nc(C#Cc3cc4ncc(C)cc4cc3C)c(C(N)=O)c2NC)C[C@@H]1COC` [Example 265, 3-[2-(3,6-Dimethylquinolin-7-yl)ethynyl]-1-[(3S,5R)-5-(methoxymethyl)-1-(prop-2-enoyl)pyrrolidin-3-yl]-5-(methylamino)pyrazole-4-carboxamide], the concentration for half-maximal inhibition (IC50) was at most 100 nM.

Turning to `C=CC(=O)N1C[C@@H](n2nc(C#Cc3cc4ncn(CC)c4c(F)c3F)c(C(N)=O)c2NC)C[C@@H]1COC` [Example 125, 3-[2-(1-Ethyl-6,7-difluoro-1,3-benzodiazol-5-yl)ethynyl]-1-[(3S,5R)-5-(methoxymethyl)-1-(prop-2-enoyl)pyrrolidin-3-yl]-5-(methylamino)pyrazole-4-carboxamide], the half-maximal inhibitory concentration (IC50) is at most 100 nM.

As to `C=CC(=O)N1C[C@@H](n2nc(C#Cc3c(F)cc4c(ncn4C4CC4)c3F)c(C(N)=O)c2NC)C[C@@H]1C(F)F` [Example 163, 3-[2-(1-Cyclopropyl-4,6-difluoro-1,3-benzodiazol-5-yl)ethynyl]-1-[(3S,5R)-5-(difluoromethyl)-1-(prop-2-enoyl)pyrrolidin-3-yl]-5-(methylamino)pyrazole-4-carboxamide], the IC50 is at most 100 nM.

As to `C=CC(=O)N1C[C@@H](n2nc(C#Cc3cc4nc(C)n(C(F)F)c4cc3Cl)c(C(N)=O)c2NC)C[C@@H]1COC` [Example 96, 3-[2-[6-Chloro-1-(difluoromethyl)-2-methyl-1,3-benzodiazol-5-yl]ethynyl]-1-[(3S,5R)-5-(methoxymethyl)-1-(prop-2-enoyl)pyrrolidin-3-yl]-5-(methylamino)pyrazole-4-carboxamide], the IC50 was at most 100 nM.

In the case of `C=CC(=O)N1C[C@@H](n2nc(C#Cc3cc4nc(C)n(C5CC5)c4cc3F)c(C(N)=O)c2NC)C[C@@H]1[C@H](C)O` [Example 225, 3-[2-(1-Cyclopropyl-6-fluoro-2-methyl-1,3-benzodiazol-5-yl)ethynyl]-1-[(3S,5R)-5-[(1S)-1-hydroxyethyl]-1-(prop-2-enoyl)pyrrolidin-3-yl]-5-(methylamino)pyrazole-4-carboxamide], the concentration for half-maximal inhibition (IC50) was at most 100 nM.

As to `C=CC(=O)N1C[C@@H](n2nc(C#Cc3c(F)c(F)c4c(ncn4CC)c3F)c(C(N)=O)c2NC)C[C@@H]1COC` [Example 157, 3-[2-(1-Ethyl-4,6,7-trifluoro-1,3-benzodiazol-5-yl)ethynyl]-1-[(3S,5R)-5-(methoxymethyl)-1-(prop-2-enoyl)pyrrolidin-3-yl]-5-(methylamino)pyrazole-4-carboxamide], the IC50 is at most 100 nM.

As to `C=CC(=O)N1C[C@@H](n2nc(C#Cc3cc4nc(C)[nH]c4cc3F)c(C(N)=O)c2NC)C[C@@H]1COC` [Example 91, 3-[2-(6-Fluoro-2-methyl-1H-1,3-benzodiazol-5-yl)ethynyl]-1-[(3S,5R)-5-(methoxymethyl)-1-(prop-2-enoyl)pyrrolidin-3-yl]-5-(methylamino)pyrazole-4-carboxamide], the 50% inhibitory concentration (IC50) was at most 100 nM.

For the compound `CNc1c(C(N)=O)c(C#Cc2cc3nc(C)n(C4CC4)c3cc2Cl)nn1[C@H]1C[C@H](COC)N(C(=O)C#CC(C)(C)O)C1` [Example 228, 3-[2-(6-Chloro-1-cyclopropyl-2-methyl-1,3-benzodiazol-5-yl)ethynyl]-1-[(3S,5R)-1-(4-hydroxy-4-methylpent-2-ynoyl)-5-(methoxymethyl)pyrrolidin-3-yl]-5-(methylamino)pyrazole-4-carboxamide], the IC50 was at most 100 nM.

Consider `C=CC(=O)N1CC[C@H](n2nc(C#Cc3cc4ncn(C5CC5)c4cc3F)c(C(N)=O)c2N)C1` [Example 168, 5-Amino-3-[2-(1-cyclopropyl-6-fluoro-1,3-benzodiazol-5-yl)ethynyl]-1-[(3S)-1-(prop-2-enoyl)pyrrolidin-3-yl]pyrazole-4-carboxamide], for which the half-inhibitory concentration (IC50) was at most 100 nM.

For `C=CC(=O)N1C[C@@H](n2nc(C#Cc3cc4c(cc3F)ncn4C(F)F)c(C(N)=O)c2NC)C[C@@H]1COC` [Example 76, 3-[2-[3-(Difluoromethyl)-6-fluoro-1,3-benzodiazol-5-yl]ethynyl]-1-[(3S,5R)-5-(methoxymethyl)-1-(prop-2-enoyl)pyrrolidin-3-yl]-5-(methylamino)pyrazole-4-carboxamide], the 50% inhibitory concentration (IC50) was at most 100 nM.

For `CNc1c(C(N)=O)c(C#Cc2cc3ncn(C4CC4)c3cc2F)nn1C1CN(C(=O)/C=C/CN(C)C)C1` [Example 204, 3-[2-(1-Cyclopropyl-6-fluoro-1,3-benzodiazol-5-yl)ethynyl]-1-{1-[(2E)-4-(dimethylamino)but-2-enoyl]azetidin-3-yl}-5-(methylamino)pyrazole-4-carboxamide], the IC50 lay within 100 to 1000 nM.

In the case of `C=CC(=O)N1C[C@@H](n2nc(C#Cc3cc4ncn(C5CC5)c4cc3Cl)c(C(N)=O)c2NC)C[C@@H]1[C@@H](C)O` [Example 222, 3-[2-(6-Chloro-1-cyclopropyl-1,3-benzodiazol-5-yl)ethynyl]-1-[(3S,5R)-5-[(1R)-1-hydroxyethyl]-1-(prop-2-enoyl)pyrrolidin-3-yl]-5-(methylamino)pyrazole-4-carboxamide], the IC50 is at most 100 nM.

In the case of `C=CC(=O)N1C[C@@H](n2nc(C#Cc3cc4ncn(C)c4cc3F)c(C(N)=O)c2NC)C[C@@H]1CF` [Example 148, 3-[2-(6-Fluoro-1-methyl-1,3-benzodiazol-5-yl)ethynyl]-1-[(3S,5R)-5-(fluoromethyl)-1-(prop-2-enoyl)pyrrolidin-3-yl]-5-(methylamino)pyrazole-4-carboxamide], the IC50 was at most 100 nM.

For the origin of these results see patent US11345681B1, “Inhibitors of fibroblast growth factor receptor kinases” (Kinnate Biopharma Inc., priority 2020, dated 2022).
